Laboratory results as given in patent US20110045101A1, “FUNGICIDAL SUBSTITUTED AZOLES” (E.I. Du Pont De Nemours and Company, priority 2009, published 2011).
Marks after values point to notes of the source that are not given here.

Tests used:
Assay type in all cases: in vivo
Alternaria solani = assay: Test D: tomato early blight, sprayed the day before inoculation, visual disease rating; details: 100 = 100% disease control; for pest or weed control at 200 ppm: Alternaria solani, 168 h
Summary of the method: (§1)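 Compounds were dissolved in acetone (3% of final volume), then suspended in 50/50 acetone/purified water with 250 ppm Trem® 014 surfactant. Suspensions at 200 ppm (some at 40 ppm) were sprayed to run-off, 200 ppm being equivalent to 500 g/ha.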

[1] = system: Erysiphe graminis f. sp. tritici; assay: Test J: wheat powdery mildew on wheat seedlings, sprayed the day before inoculation, visual disease rating; details: 100 = 100% disease control; for pest or weed control at 200 ppm: Blumeria graminis, 168 h
Summary of the method: as §1

Septoria nodorum = assay: Test F: wheat glume blotch on wheat seedlings, sprayed the day before inoculation, visual disease rating; details: 100 = 100% disease control; for pest or weed control at 200 ppm: Parastagonospora nodorum, 264 h
Summary of the method: as §1

[2] = system: Puccinia recondita f. sp. tritici; assay: Test I: wheat leaf rust on wheat seedlings, sprayed the day before inoculation, visual disease rating; details: 100 = 100% disease control; for pest or weed control at 200 ppm: Puccinia recondita, 168 h
Summary of the method: as §1

Septoria tritici = assay: Test G: wheat leaf blotch on wheat seedlings, sprayed the day before inoculation, visual disease rating; details: 100 = 100% disease control; for pest or weed control at 200 ppm: Zymoseptoria tritici, 504 h
Summary of the method: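 Visual disease ratings taken 19 days after transfer to a 20° C growth chamber, following 48 h in saturated atmosphere at 24° C. Seedlings had been sprayed to run-off one day before spore inoculation. Dose 200 ppm, or 40 ppm where starred.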

[3] = system: Puccinia recondita f. sp. tritici; assay: Test H: wheat leaf rust, test suspension sprayed after inoculation of wheat seedlings, visual disease rating; details: 100 = 100% disease control; for pest or weed control at 200 ppm: Puccinia recondita, 96 h
Summary of the method: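 Wheat seedlings inoculated with P. recondita spores, held 24 h saturated at 20 °C, then 2 days in growth chamber at 20 °C; compound suspension (acetone/water with Trem 014) sprayed to run-off afterwards. Rated visually; 200 ppm (≈500 g/ha) unless marked *, which denotes 40 ppm.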

Botrytis cinerea = assay: Test C: tomato Botrytis on tomato seedlings, sprayed the day before inoculation, visual disease rating; details: 100 = 100% disease control; for pest or weed control at 200 ppm: Botrytis cinerea, 120 h
Summary of the method: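 Compounds were dissolved in acetone (3% of final volume), then suspended in 50/50 acetone/purified water containing 250 ppm polyhydric alcohol ester surfactant. Suspensions were sprayed to run-off on tomato seedlings at 200 ppm, equivalent to 500 g/ha, or at 40 ppm where marked.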

[4] = 40 ppm (marked *), 0 = no control
[5] = 200 ppm, 0 = no control relative to controls

SMILES | Test D disease control rating (Alternaria solani; [5]) [%] | Test J disease control rating [1, 5] [%] | Test F disease control rating (Septoria nodorum; [5]) [%] | Test I disease control rating [2, 5] [%] | Test G disease control rating (Septoria tritici; [5]) [%] | Test H disease control rating [3, 5] [%] | Test C disease control rating (Botrytis cinerea; [5]) [%] | other results
COc1cc(F)c(-n2c(Br)nc(Cl)c2-c2ccc(Cl)cc2)c(F)c1 [compound 373] | – | – | – | – | – | – | – | Test D disease control rating (Alternaria solani; [4]): 98* %; Test J disease control rating [1, 4]: 99* %; Test F disease control rating (Septoria nodorum; [4]): 60* %; Test I disease control rating [2, 4]: 95* %; Test G disease control rating (Septoria tritici; [4]): 92* %; Test H disease control rating [3, 4]: 0* %; Test C disease control rating (Botrytis cinerea; [4]): 99* %
Cc1nc(Cl)n(-c2ccc(Cl)cc2)c1-c1c(F)ccc(F)c1F [compound 412] | – | – | – | – | – | – | – | Test D disease control rating (Alternaria solani; [4]): 100* %; Test J disease control rating [1, 4]: 99* %; Test F disease control rating (Septoria nodorum; [4]): 0* %; Test I disease control rating [2, 4]: 74* %; Test G disease control rating (Septoria tritici; [4]): 99* %; Test H disease control rating [3, 4]: 0* %; Test C disease control rating (Botrytis cinerea; [4]): 100* %
COC(=O)Cc1nc(Br)c(-c2c(F)cccc2F)n1-c1ccc(Cl)cc1 [Compound 544, methyl 4-bromo-1-(4-chlorophenyl)-5-(2,6-difluorophenyl)-1H-imidazole-2-acetate] | – | – | – | – | – | – | – | pest or weed control at 200 ppm (Alternaria solani; [5]): 98%; pest or weed control at 200 ppm [1, 5]: 86%; pest or weed control at 200 ppm (Septoria nodorum; [5]): 0%; pest or weed control at 200 ppm [2, 5]: 91%; pest or weed control at 200 ppm (Septoria tritici; [5]): 82%; pest or weed control at 200 ppm [3, 5]: 9%; pest or weed control at 200 ppm (Botrytis cinerea; [5]): 84%
COc1cc(F)c(-c2c(Cl)nc(Cl)n2-c2cc(C)cnc2Cl)c(F)c1 [compound 677] | 100 | 100 | 100 | 100 | 99 | 100 | 100 | –
COc1cc(F)c(-c2c(Cl)ncn2Cc2ccc(Cl)nc2)c(F)c1 [compound 669] | 100 | 0 | 99 | 98 | 99 | 73 | 100 | –
Fc1cc(-n2c(Cl)nc(Cl)c2-c2cncc(Br)c2)ccc1Cl [compound 486] | 0 | 0 | 0 | 14 | 0 | 0 | 66 | –
CCOc1ccc(F)c(-c2c(Cl)nc(C)n2-c2ccc(Cl)cc2)c1F [compound 684] | 100 | 100 | 100 | 99 | 99 | 53 | 100 | –
Cc1nc(Br)c(Cc2ccc(F)cc2F)n1-c1ccc(Cl)cc1 [compound 404] | 0 | 98 | 0 | 97 | 99 | 0 | 100 | –
COc1cc(F)c(-c2c(Cl)nc(Cl)n2Cc2ccc(Cl)cc2)c(F)c1 [compound 284] | – | – | – | – | – | – | – | Test D disease control rating (Alternaria solani; 200 ppm, 0 = no control): 99%; Test J disease control rating ([1]; 200 ppm, 0 = no control): 100%; Test F disease control rating (Septoria nodorum; 200 ppm, 0 = no control): 92%; Test I disease control rating ([2]; 200 ppm, 0 = no control): 99%; Test G disease control rating (Septoria tritici; 200 ppm, 0 = no control): 95%; Test H disease control rating ([3]; 200 ppm, 0 = no control): 6%; Test C disease control rating (Botrytis cinerea; 200 ppm, 0 = no control): 100%
COc1cc(F)c(-n2c(Cl)nc(C)c2-c2cccc(F)c2)c(F)c1 [compound 686] | – | – | – | – | – | – | – | Test D disease control rating (Alternaria solani; 40 ppm (marked *)): 100* %; Test J disease control rating ([1]; 40 ppm (marked *)): 98* %; Test F disease control rating (Septoria nodorum; 40 ppm (marked *)): 82* %; Test I disease control rating ([2]; 40 ppm (marked *)): 99* %; Test G disease control rating (Septoria tritici; 40 ppm (marked *)): 98* %; Test H disease control rating ([3]; 40 ppm (marked *)): 98* %; Test C disease control rating (Botrytis cinerea; 40 ppm (marked *)): 100* %
COc1cc(OC)c(Br)c(-n2c(C)nc(Br)c2Cc2ccc(F)cc2F)c1Br [compound 477] | 0 | 0 | 0 | 75 | 0 | 0 | 9 | –
Fc1ccc(-n2c(Cl)nc(Br)c2-c2ccc(Cl)c(F)c2)c(Cl)c1 [compound 326] | 100 | 100 | 51 | 98 | 96 | 67 | 100 | –
CN(C)c1ncn(Cc2cccc(Cl)c2)c1-c1ccc(Cl)cc1 [compound 273] | – | – | – | – | – | – | – | Test D disease control rating (Alternaria solani; 200 ppm, 0 = no control): 0%; Test J disease control rating ([1]; 200 ppm, 0 = no control): 0%; Test F disease control rating (Septoria nodorum; 200 ppm, 0 = no control): 0%; Test I disease control rating ([2]; 200 ppm, 0 = no control): 41%; Test G disease control rating (Septoria tritici; 200 ppm, 0 = no control): 13%; Test H disease control rating ([3]; 200 ppm, 0 = no control): 46%; Test C disease control rating (Botrytis cinerea; 200 ppm, 0 = no control): 63%
Fc1ccc(-n2cnc(Br)c2-c2c(F)ccc(F)c2Cl)cc1 [compound 508] | 100 | 99 | 0 | 99 | 94 | 78 | 100 | –
N#CCc1nc(Br)c(-c2c(F)cccc2F)n1-c1ccc(Cl)cc1 [Compound 509, 4-bromo-1-(4-chlorophenyl)-5-(2,6-difluorophenyl)-1H-imidazole-2-acetonitrile] | – | – | – | – | – | – | – | pest or weed control at 200 ppm (Alternaria solani; [5]): 77%; pest or weed control at 200 ppm [1, 5]: 78%; pest or weed control at 200 ppm (Septoria nodorum; [5]): 0%; pest or weed control at 200 ppm [2, 5]: 85%; pest or weed control at 200 ppm (Septoria tritici; [5]): 92%; pest or weed control at 200 ppm [3, 5]: 9%; pest or weed control at 200 ppm (Botrytis cinerea; [5]): 98%
Cc1nc(Cl)c(-c2c(F)cccc2F)n1-c1ccc2c(c1)OC(F)(F)O2 [compound 608] | – | – | – | – | – | – | – | Test D disease control rating (Alternaria solani; 40 ppm (marked *)): 0* %; Test J disease control rating ([1]; 40 ppm (marked *)): 0* %; Test F disease control rating (Septoria nodorum; 40 ppm (marked *)): 0* %; Test I disease control rating ([2]; 40 ppm (marked *)): 41* %; Test G disease control rating (Septoria tritici; 40 ppm (marked *)): 4* %; Test H disease control rating ([3]; 40 ppm (marked *)): 7* %; Test C disease control rating (Botrytis cinerea; 40 ppm (marked *)): 17* %
COc1cc(F)c(-n2cnc(C)c2-c2ccc(C)cc2)c(F)c1 [compound 560] | – | – | – | – | – | – | – | Test D disease control rating (Alternaria solani; 40 ppm (marked *)): 0* %; Test J disease control rating ([1]; 40 ppm (marked *)): 93* %; Test F disease control rating (Septoria nodorum; 40 ppm (marked *)): 0* %; Test I disease control rating ([2]; 40 ppm (marked *)): 79* %; Test G disease control rating (Septoria tritici; 40 ppm (marked *)): 65* %; Test H disease control rating ([3]; 40 ppm (marked *)): 33* %; Test C disease control rating (Botrytis cinerea; 40 ppm (marked *)): 99* %
Cc1ccc(-n2cnc(Br)c2-c2c(F)ccc(F)c2F)cc1 [compound 411] | 100 | 100 | 0 | 99 | 99 | 0 | 100 | –
Cc1ncn(-c2ccc(Cl)cn2)c1-c1c(F)cccc1F [compound 320] | 67 | 99 | 0 | 28 | 100 | 0 | 99 | –
COc1cc(F)c(-c2c(Cl)nc(Cl)n2-c2ccc(OC)nc2Cl)c(F)c1 [compound 515] | 99 | 100 | 0 | 100 | 100 | 100 | 97 | –
Cc1nc(Br)n(-c2ccc(F)cc2Cl)c1-c1ccc(Cl)c(F)c1 [compound 325] | 91 | 99 | 51 | 97 | 96 | 0 | 94 | –
COc1ccc(-n2c(Cl)nc(Cl)c2-c2c(F)cccc2F)c(Cl)n1 [compound 620] | 99 | 99 | 90 | 100 | 98 | 100 | 100 | –
COc1ccc(F)c(-c2c(Cl)nc(C)n2-c2ccc(Cl)c(F)c2)c1F [compound 393] | 100 | 100 | 99 | 99 | 95 | 79 | 99 | –
